{"source": "patent US20250256005A1", "about": "“FLOWABLE PASTE WITH ELLAGIC ACID-NICKEL COMPLEX AND USES THEREOF FOR ACTIVATING COAGULATION” (Ethicon, Inc., priority 2024, published 2025)", "tested_on": "citrated whole blood (intrinsic pathway of coagulation)", "experiment": "Whole Blood (WB) gelation test", "type": "biochemical", "conditions": "ellagic acid without Nickel or any other metal", "excerpt": "The aim was to assess how quickly the activators clot fresh whole blood.\nThese clotting time assays evaluate the ability of a material to active the intrinsic pathway to form a fibrin clot in whole blood after recalcification of citrated blood. Fresh citrated blood is used to preserve clotting factors.\nWB Gelation Test: The WB gelation test uses a larger volume of blood compared to a small volume ACT tube to accommodate biomaterials, e.g., gelatins, collagen, thus allowing the WB gelation test to assess interactions between activators and biomaterials. […] To address this limitation, the WB Gelation Test was developed with a heated enclosure and larger tubes to accommodate larger volumes of blood and greater amounts of activators. Setup includes a plexiglass enclosure with a heating unit to perform the testing at 37° C. A temperature sensor in the enclosure maintained the temperature at 37° C. ±1° C. The enclosure contains an orbital rotator to gently mix the blood to with the other materials being tested while keeping it warm. The calcium saline and tube rocker are also in the enclosure. The enclosure has a front hinge to allow access from the front of the unit.\nIn exemplary procedures, citrated whole blood (4 ml) was added to a 15 ml conical tube with activator/biomaterial and mixed, then calcium saline solution (2 ml) was added to the tube and the timer is started. […]"}
{"smiles": "O=c1oc2c(O)c(O)cc3c(=O)oc4c(O)c(O)cc1c4c23", "note": "[Ellagic acid, ellagic acid]", "values": [{"measurement": "time over which no clotting was observed", "value": "over 1200 minutes"}]}
